Test results reported in ChEMBL document CHEMBL3870342, “New polyhydroxytriterpenoid derivatives from fruits of Terminalia chebula Retz. and their α-glucosidase and α-amylase inhibitory activity” (Bioorg Med Chem Lett, 2017).

What was measured:
[1] = target: T1, Pancreatic alpha-amylase (Sus scrofa) (UniProt P00690); assay: Inhibition of pig pancreas alpha-amylase using potato starch as substrate at 200 uM after 15 mins
T1 sequence (whole entry): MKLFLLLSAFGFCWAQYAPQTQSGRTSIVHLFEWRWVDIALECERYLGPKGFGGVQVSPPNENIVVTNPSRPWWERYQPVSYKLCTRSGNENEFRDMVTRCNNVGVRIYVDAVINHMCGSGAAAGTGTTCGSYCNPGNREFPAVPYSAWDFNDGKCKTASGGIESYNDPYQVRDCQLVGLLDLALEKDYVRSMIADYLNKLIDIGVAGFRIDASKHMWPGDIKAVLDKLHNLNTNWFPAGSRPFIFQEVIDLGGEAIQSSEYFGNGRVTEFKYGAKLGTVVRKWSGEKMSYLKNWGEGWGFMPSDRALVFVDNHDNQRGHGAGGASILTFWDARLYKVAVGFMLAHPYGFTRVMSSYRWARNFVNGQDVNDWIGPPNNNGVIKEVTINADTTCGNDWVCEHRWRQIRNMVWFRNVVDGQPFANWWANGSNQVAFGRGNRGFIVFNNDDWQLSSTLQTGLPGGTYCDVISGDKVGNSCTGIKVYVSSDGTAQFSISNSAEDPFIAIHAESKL

Rattus norvegicus = species: Rattus norvegicus; assay: Inhibition of rat intestinal alpha-glucosidase using PNPG as substrate at 200 uM after 30 mins
Saccharomyces cerevisiae = assay: Inhibition of Saccharomyces cerevisiae alpha-glucosidase using PNPG as substrate at 200 uM preincubated for 10 mins followed by substrate addition measured after 10 mins
[2] = Inhibition of Saccharomyces cerevisiae alpha-glucosidase using PNPG as substrate preincubated for 10 mins followed by substrate addition measured after 10 mins

inhibition [1] [%] | inhibition (Rattus norvegicus) [%] | inhibition (Saccharomyces cerevisiae) [%] | IC50 [2] [µM] | SMILES
2.4 | 7.3 | 25.1 | – | CC1=C2C3=CC[C@@H]4[C@@]5(C)C[C@@H](O)[C@H](O)[C@@](C)(CO)[C@@H]5CC[C@@]4(C)[C@]3(C)CC[C@@]2(C(=O)O[C@@H]2O[C@H](CO)[C@@H](O)[C@H](O)[C@H]2O)CC[C@H]1C
3.3 | 8.5 | 40.1 | – | CC1(C)CC[C@]2(C(=O)O)CC[C@]3(C)C(=CC[C@@H]4[C@@]5(C)C[C@@H](O)[C@H](O)[C@@](C)(COC(=O)[C@H](CC(=O)O)C[C@H]6c7c(cc(O)c(O)c7O)C(=O)O[C@@H]6C(=O)O)[C@@H]5CC[C@]43C)[C@@H]2[C@@H]1O
82.1 | 69.3 | 58.6 | 174 | C[C@H]1O[C@H](O[C@H]2[C@H](O)[C@@H](O)[C@@H](O[C@H]3[C@H](O)[C@@H](O)C(O)O[C@@H]3CO)O[C@@H]2CO)[C@H](O)[C@@H](O)[C@@H]1N[C@H]1C=C(CO)[C@@H](O)[C@H](O)[C@H]1O (stereo not given in full) [ACARBOSE]
5.9 | 6.4 | 4 | – | CC1(C)CC[C@]2(C(=O)O[C@@H]3O[C@H](CO)[C@@H](O)[C@H](O)[C@H]3O)CC[C@]3(C)C(=CC[C@@H]4[C@@]5(C)C[C@@H](O)[C@H](O)[C@@](C)(CO)[C@@H]5CC[C@]43C)[C@@H]2C1
1.7 | 2.8 | 4.4 | – | CC1(C)CC[C@]2(C(=O)O)CC[C@]3(C)C(=CC[C@@H]4[C@@]5(C)C[C@@H](O)[C@H](O)[C@@](C)(CO)[C@@H]5CC[C@]43C)[C@@H]2[C@@H]1O
4.4 | 6.7 | 8.2 | – | CC1(C)CC[C@]2(C(=O)O[C@@H]3O[C@H](CO)[C@@H](O)[C@H](O)[C@H]3O)CC[C@]3(C)C(=CC[C@@H]4[C@@]5(C)C[C@@H](O)[C@H](O)[C@@](C)(COC(=O)[C@@H](CC(=O)O)C[C@H]6c7c(cc(O)c(O)c7O)C(=O)O[C@@H]6C(=O)O)[C@@H]5CC[C@]43C)[C@@H]2[C@@H]1O
5.6 | 9.7 | 20.7 | – | CC1(C)CC[C@]2(C(=O)O[C@@H]3O[C@H](CO)[C@@H](O)[C@H](O)[C@H]3O)CC[C@]3(C)C(=CC[C@@H]4[C@@]5(C)CC[C@H](O)[C@@](C)(CO)[C@@H]5CC[C@]43C)[C@@H]2[C@@H]1O
6.2 | 7.8 | 48.2 | – | CC1(C)CC[C@]2(C(=O)O)CC[C@]3(C)C(=CC[C@@H]4[C@@]5(C)C[C@@H](O)[C@H](O)C(C)(C)[C@@H]5CC[C@]43C)[C@@H]2[C@@H]1O
7.5 | 10.1 | 21 | – | CC1(C)CC[C@]2(C(=O)O)CC[C@]3(C)C(=CC[C@@H]4[C@@]5(C)C[C@@H](O)[C@H](O)[C@@](C)(CO)[C@@H]5[C@H](O)C[C@]43C)[C@@H]2C1
7.2 | 7.8 | 36.1 | – | CC1(C)CC[C@]2(C(=O)O[C@@H]3O[C@H](CO)[C@@H](O)[C@H](O)[C@H]3O)CC[C@]3(C)C(=CC[C@@H]4[C@@]5(C)C[C@@H](O)[C@H](O)C(C)(C)[C@@H]5CC[C@]43C)[C@@H]2[C@@H]1O
9.7 | 4.7 | 48.8 | – | CC1(C)CC[C@]2(C(=O)O)CC[C@]3(C)C(=CC[C@@H]4[C@@]5(C)C[C@@H](O)[C@H](O)[C@@](C)(CO)[C@@H]5CC[C@]43C)[C@@H]2C1
– | – | 3.1 | – | CC1(C)CC[C@]2(C(=O)O[C@@H]3O[C@H](CO)[C@@H](O)[C@H](O)[C@H]3O)CC[C@]3(C)C(=CC[C@@H]4[C@@]5(C)C[C@@H](O)[C@H](O)[C@@](C)(CO)[C@@H]5CC[C@]43C)[C@@H]2[C@@H]1O
